Measurements as given in the supplement of paper PMC11061612.

Assays:
[1] = test system: TUR (Acute Myeloid Leukemia); test: combination Emax (second highest fraction inhibited in the dose matrix, 72 h); higher = more inhibition; extreme values may be limits of the assay
Summary of the method: (§1)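 After 24 hours at 37°C and 5% CO2 in 1536-well plates, cells in DMEM/F12 or RPMI plus 10% FBS received two-drug dose matrices for 72 hours. Viability came from CellTiter-Glo 2.0 luminescence and was scaled as inhibition, anchored at 0 by vehicle wells and at 1 by blank wells. Combination Emax is taken as the second-highest inhibition in the matrix, and Bliss excess as the observed combination effect less EA + EB − EA·EB, with EA and EB the single-agent effects.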

[2] = test system: SAT (Head and Neck Carcinoma); test: as above
Summary of the method: as §1

[3] = test system: ZR-75-30 (Breast Carcinoma); test: as above
Summary of the method: as §1

[4] = test system: SNU-423 (Hepatocellular Carcinoma); test: as above
Summary of the method: as §1

[5] = test system: CPC-N (Small Cell Lung Carcinoma); test: as above
Summary of the method: as §1

[6] = test system: CL-11 (Colorectal Carcinoma); test: as above
Summary of the method: as §1

GAK (Melanoma) = test: as above
Summary of the method: as §1

ES6 (Ewing's Sarcoma) = test: as above
Summary of the method: as §1

[7] = test system: NAMALWA (Burkitt's Lymphoma); test: as above
Summary of the method: as §1

NCI-H226 (Mesothelioma) = test: as above
Summary of the method: as §1

[8] = test system: MOLT-13 (T-Lymphoblastic Leukemia); test: as above
Summary of the method: as §1

[9] = test system: SK-CO-1 (Colorectal Carcinoma); test: as above
Summary of the method: as §1

[10] = test system: HPAF-II (Pancreatic Carcinoma); test: as above
Summary of the method: as §1

SK-N-SH (Neuroblastoma) = test: as above
Summary of the method: as §1

[11] = test system: HPAF-II (Pancreatic Carcinoma); test: Bliss excess, mean over the matrix (fraction); higher = more synergy
Summary of the method: as §1

[12] = test system: NCI-H1963 (Small Cell Lung Carcinoma); test: combination Emax (second highest fraction inhibited in the dose matrix, 72 h); higher = more inhibition; extreme values may be limits of the assay
Summary of the method: as §1
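Throughout, for Bliss excess, mean over the matrix: after 72 h of two-drug dosing.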

Row | Compound | combination Emax [1] | combination Emax [2] | combination Emax [3] | combination Emax [4] | combination Emax [5] | combination Emax [6] | combination Emax (GAK (Melanoma)) | combination Emax (ES6 (Ewing's Sarcoma)) | combination Emax [7] | combination Emax (NCI-H226 (Mesothelioma)) | combination Emax [8] | combination Emax [9] | combination Emax [10] | combination Emax (SK-N-SH (Neuroblastoma)) | Bliss excess [11] | combination Emax [12]
1 | CN(C)CCCOc1ccc(-c2ccc3ncc4c(c3c2)n(C2CCOCC2)c(=O)n4C)cn1 [AZD0156] + O=C(c1cc(Cc2n[nH]c(=O)c3ccccc23)ccc1F)N1CCN(C(=O)C2CC2)CC1 [Olaparib] (first compound max 3 µM, partner max 3 µM) | 0.273 | 0.133 | 0.283 | 0.293 | 0.396 | 0.358 | 0.193 | 0.315 | 0.487 | 0.251 | 0.397 | 0.608 | 0.25 | 0.292 | -0.0048 | 
2 | C=CCn1c(=O)c2cnc(Nc3ccc(N4CCN(C)CC4)cc3)nc2n1-c1cccc(C(C)(C)O)n1 [AZD1775] + C1CN(CCC1(C(=O)N[C@@H](CCO)C2=CC=C(C=C2)Cl)N)C3=NC=NC4=C3C=CN4 [Capivasertib] (first compound max 3 µM, partner max 3 µM) | 0.955 | 0.563 | 0.441 | 0.659 | 0.948 | 0.734 | 0.73 | 0.472 | 0.981 | 0.45 | 0.973 | 0.691 | 0.605 | 0.711 | -0.096 | 
3 | Cc1c2c(nn1C)CSCc1cc(n(C)n1)CSc1cc(c3ccccc3c1)OCCCc1c(C(=O)O)n(C)c3c-2c(Cl)ccc13 [AZD5991] + C[C@@H]1COCCN1C2=NC(=NC(=C2)C3(CC3)[S@](=N)(=O)C)C4=C5C=CNC5=NC=C4 [AZD6738] (first compound max 1 µM, 7x7, partner max 10 µM) | 0.99 | 0.79 | 0.429 | 0.471 | 0.874 | 0.645 | 0.593 | 0.445 | 0.997 | 0.193 | 1 | 0.615 |  | 0.961 |  | 0.885
4 | CCc1c2c(nc3ccc(O)cc13)-c1cc3c(c(=O)n1C2)COC(=O)[C@]3(O)CC [SN-38] + CN(C)CCCOc1ccc(-c2ccc3ncc4c(c3c2)n(C2CCOCC2)c(=O)n4C)cn1 [AZD0156] (first compound max 0.3 µM, 7x7, partner max 1 µM) | 0.982 | 0.344 | 0.0683 | 0.455 | 0.549 | 0.764 | 0.477 | 0.603 | 0.989 | 0.337 | 1 | 0.887 |  | 0.909 |  | 0.822
5 | CN(CCO)CC[C@H](CSc1ccccc1)Nc1ccc(S(=O)(=O)NC(=O)c2ccc(N3CCC([C@@H](O)c4ccccc4-c4ccc(Cl)cc4)CC3)cc2)cc1S(=O)(=O)C(F)(F)F [AZD4320] + Cc1cc2ncnn2cc1Nc1ncc2c(n1)n(C1CCOCC1)c(=O)n2C [AZD7648] (first compound max 1 µM, 7x7, partner max 10 µM) | 0.242 | 0.305 | 0.126 | 0.39 | 0.984 | 0.126 | 0.314 | 0.268 | 0.323 | 0.0544 | 0.951 | 0.646 |  | 0.828 |  | 1
6 | CCc1c2c(nc3ccc(O)cc13)-c1cc3c(c(=O)n1C2)COC(=O)[C@]3(O)CC [SN-38] + O=C(c1cc(Cc2n[nH]c(=O)c3ccccc23)ccc1F)N1CCN(C(=O)C2CC2)CC1 [Olaparib] (first compound max 0.3 µM, 7x7, partner max 10 µM) | 0.994 | 0.418 | 0.348 | 0.495 | 0.392 | 0.776 | 0.472 | 0.618 | 0.986 | 0.168 | 1 | 0.798 |  | 0.959 |  | 0.854
7 | COc1cccc(OCCCN)c1-c1cc(Nc2cnc(C#N)cn2)n[nH]1 [Prexasertib] + CCc1c2c(nc3ccc(O)cc13)-c1cc3c(c(=O)n1C2)COC(=O)[C@]3(O)CC [SN-38] (first compound max 1 µM, 7x7, partner max 0.3 µM) | 1 | 0.618 | 0.14 | 0.779 | 1 | 0.849 | 0.641 | 0.837 | 0.986 | 0.4 | 1 | 0.826 |  | 0.947 |  | 1
8 | Cc1c2c(nn1C)CSCc1cc(n(C)n1)CSc1cc(c3ccccc3c1)OCCCc1c(C(=O)O)n(C)c3c-2c(Cl)ccc13 [AZD5991] + C1CN(CCC1(C(=O)N[C@@H](CCO)C2=CC=C(C=C2)Cl)N)C3=NC=NC4=C3C=CN4 [Capivasertib] (first compound max 1 µM, 7x7, partner max 3 µM) | 0.913 | 0.738 | 0.567 | 0.341 | 0.338 | 0.133 | 0.179 | 0.281 | 1 | 0.2 | 1 | 0.213 |  | 0.387 |  | 0.43
